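96-well plates; 48 h exposure; 5 concentrations. Endpoints by linear interpolation between flanking doses. Not reached: highest tested concentration assigned. Abbreviation: GI50, concentration required for 50% inhibition of growth.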 The source made the active and inactive calls. Rule as the data show it: active = GI50 up to about 1.1 µM and inactive = higher.
Tests used:
Assay in all cases: growth of human tumour cells (NCI), 48 h
M14 = tested on: M14
SK-MEL-28 = tested on: SK-MEL-28
UACC-62 = tested on: UACC-62
ACHN = tested on: ACHN
SK-OV-3 = tested on: SK-OV-3
RPMI-8226 = tested on: RPMI-8226
SF-295 = tested on: SF-295
CAKI-1 = tested on: CAKI-1
A498 = tested on: A498
NCI-H226 = tested on: NCI-H226
HL-60 = tested on: HL-60
LOX IMVI = tested on: LOX IMVI
SNB-19 = tested on: SNB-19
U-251 = tested on: U-251
COLO 205 = tested on: COLO 205
SR = tested on: SR
HOP-62 = tested on: HOP-62
CCRF-CEM = tested on: CCRF-CEM
SNB-75 = tested on: SNB-75
HCT-15 = tested on: HCT-15

SMILES	GI50 (M14)	GI50 (SK-MEL-28)	GI50 (UACC-62)	GI50 (ACHN)	GI50 (SK-OV-3)	GI50 (RPMI-8226)	GI50 (SF-295)	GI50 (CAKI-1)	GI50 (A498)	GI50 (NCI-H226)	GI50 (HL-60)	GI50 (LOX IMVI)	GI50 (SNB-19)	GI50 (U-251)	GI50 (COLO 205)	GI50 (SR)	GI50 (HOP-62)	GI50 (CCRF-CEM)	GI50 (SNB-75)	GI50 (HCT-15)
CCOC(=O)C1=C(C)N(C2OC(COC(=O)c3ccccc3)C(OC(=O)c3ccccc3)C2OC(=O)c2ccccc2)C(=S)NC1c1ccccc1 (centres undefined)	25.7 µM (inactive)	49.2 µM (inactive)	29.3 µM (inactive)	25.1 µM (inactive)	60.1 µM (inactive)	16.1 µM (inactive)	61.7 µM (inactive)	24.4 µM (inactive)	28.2 µM (inactive)	31.1 µM (inactive)	14.4 µM (inactive)	58.9 µM (inactive)	55.1 µM (inactive)	34.9 µM (inactive)	33.6 µM (inactive)	20 µM (inactive)	> 100 µM (inactive)	23.1 µM (inactive)	30.4 µM (inactive)	
Cc1ccc(NC(=O)CC(=O)n2nc(-c3ccccc3)c(/N=N/c3ccccc3Cl)c2-c2ccccc2)cc1	88.3 µM (inactive)	62.2 µM (inactive)	45.4 µM (inactive)	49.9 µM (inactive)	27 µM (inactive)	> 10 µM (inactive)	48 µM (inactive)	42.6 µM (inactive)	34 µM (inactive)	> 10 µM (inactive)	0.458 µM (active)	92.5 µM (inactive)	38.8 µM (inactive)	60.8 µM (inactive)	> 10 µM (inactive)	> 100 µM (inactive)	83.8 µM (inactive)	41.4 µM (inactive)	16.4 µM (inactive)	> 10 µM
CC(Cn1c(=O)oc2ccccc21)N(C)C (centres undefined)	> 100 µM (inactive)	> 100 µM (inactive)	> 100 µM (inactive)	> 100 µM (inactive)	> 100 µM (inactive)	> 100 µM (inactive)	> 100 µM (inactive)	> 100 µM (inactive)	> 100 µM (inactive)	> 100 µM (inactive)	> 100 µM (inactive)	> 100 µM (inactive)	> 100 µM (inactive)	> 100 µM (inactive)	> 100 µM (inactive)	> 100 µM (inactive)	> 100 µM (inactive)	> 100 µM (inactive)	> 100 µM (inactive)	> 100 µM
CC1(c2ccccc2)N=c2[nH]cnc2=C(C(N)=O)N1 (centres undefined)	> 100 µM (inactive)	> 100 µM (inactive)	> 100 µM (inactive)	> 100 µM (inactive)	> 100 µM (inactive)	> 100 µM (inactive)	> 100 µM (inactive)	> 100 µM (inactive)	> 100 µM (inactive)	> 100 µM (inactive)	> 100 µM (inactive)	> 100 µM (inactive)	> 100 µM (inactive)	> 100 µM (inactive)	> 100 µM (inactive)	> 100 µM (inactive)	> 100 µM (inactive)	> 100 µM (inactive)	> 100 µM (inactive)	> 100 µM
O=C(c1cccs1)c1nccc2c1cnc1ccccc12	> 100 µM (inactive)	> 100 µM (inactive)	> 100 µM (inactive)	38.5 µM (inactive)	> 100 µM (inactive)	> 100 µM (inactive)	> 100 µM (inactive)	41.5 µM (inactive)	63.8 µM (inactive)	> 100 µM (inactive)	> 100 µM (inactive)	> 100 µM (inactive)	> 100 µM (inactive)	41.2 µM (inactive)	> 100 µM (inactive)	> 100 µM (inactive)	28.7 µM (inactive)	> 100 µM (inactive)	43.7 µM (inactive)	> 100 µM
C[C@]12CCC(=O)C(O)=C1CC[C@@H]1[C@@H]2CC[C@]2(C)C(=O)CC[C@@H]12 [FORMESTANE]	> 100 µM (inactive)	> 100 µM (inactive)	> 100 µM (inactive)	> 100 µM (inactive)	> 100 µM (inactive)	> 100 µM (inactive)	> 100 µM (inactive)	> 92.9 µM (inactive)	> 84.5 µM (inactive)	> 100 µM (inactive)	> 80.9 µM (inactive)	> 100 µM (inactive)	> 100 µM (inactive)	> 100 µM (inactive)	> 100 µM (inactive)	> 100 µM (inactive)	> 100 µM (inactive)	> 100 µM (inactive)	> 100 µM (inactive)	> 100 µM

Source: ChEMBL document CHEMBL1201862, “PubChem BioAssay data set” (2004)
